Test results: the supplement of paper PMC10307832

Tests used:
Assay in all cases: relative viability (nuclei count vs DMSO), 5 days (fraction); higher = more cells survive
CUDC-101 + Lapatinib = compound: C#Cc1cccc(Nc2ncnc3cc(OC)c(OCCCCCCC(=O)NO)cc23)c1 [CUDC-101] + CS(=O)(=O)CCNCc1ccc(-c2ccc3ncnc(Nc4ccc(OCc5cccc(F)c5)c(Cl)c4)c3c2)o1 [Lapatinib] (partner 2 µM)
Method in brief: (§1)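 Lung cancer cell lines were seeded in 1536-well plates and dosed by pin tool the next day, with either a single drug or a fixed anchor-drug dose combined with five library-drug doses (not always all listed) spaced in √10 steps. Five days later, one step fixed the cells and stained their nuclei (final 0.05% Triton X-100, 1% formaldehyde, 1 ug/ml Hoechst), and nuclei were counted on 4× images. Relative viability is the nuclei count in treated wells divided by the count in vehicle wells, and each value is the median of duplicate plates.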

[1] = compound: C1=CC=C2C(=C1)N=C(S2)C(C#N)C3=NC(=NC=C3)NCCC4=CN=CC=C4 + Nc1ncn([C@H]2C[C@H](O)[C@@H](CO)O2)c(=O)n1 [Decitabine] (partner 2 µM)
Method in brief: as §1

NVP-TAE684 + Decitabine = compound: COc1cc(N2CCC(N3CCN(C)CC3)CC2)ccc1Nc1ncc(Cl)c(Nc2ccccc2S(=O)(=O)C(C)C)n1 [NVP-TAE684] + Nc1ncn([C@H]2C[C@H](O)[C@@H](CO)O2)c(=O)n1 [Decitabine] (partner 2 µM)
Method in brief: as §1

[2] = compound: C1=CC=C2C(=C1)N=C(S2)C(C#N)C3=NC(=NC=C3)NCCC4=CN=CC=C4 + Cc1nc(NC(=O)N2CCC[C@H]2C(N)=O)sc1-c1ccnc(C(C)(C)C(F)(F)F)c1 [Alpelisib] (partner 2 µM)
Method in brief: as §1

Cell Line | relative viability (CUDC-101 + Lapatinib; first compound 0.01 µM) | relative viability (CUDC-101 + Lapatinib; first compound 0.1 µM) | relative viability (CUDC-101 + Lapatinib; first compound 0.3162 µM) | relative viability (CUDC-101 + Lapatinib; first compound 1 µM) | relative viability ([1]; first compound 0.005 µM) | relative viability ([1]; first compound 0.01581 µM) | relative viability ([1]; first compound 0.05 µM) | relative viability ([1]; first compound 0.1581 µM) | relative viability ([1]; first compound 0.5 µM) | relative viability (NVP-TAE684 + Decitabine; first compound 0.2 µM) | relative viability (NVP-TAE684 + Decitabine; first compound 0.6325 µM) | relative viability (NVP-TAE684 + Decitabine; first compound 2 µM) | relative viability ([2]; first compound 0.005 µM) | relative viability ([2]; first compound 0.01581 µM) | relative viability ([2]; first compound 0.05 µM) | relative viability ([2]; first compound 0.1581 µM) | relative viability ([2]; first compound 0.5 µM) | relative viability (CUDC-101 + Lapatinib; first compound 0.03162 µM)
NCI-H520 | 0.94 | 0.879 | 0.76 | 0.323 | 0.46 | 0.449 | 0.482 | 0.616 | 0.513 | 0.508 | 0.45 | 0.267 | 0.508 | 1.09 | 0.793 | 1.13 | 0.665 | 
RERF-LC-KJ | 0.893 | 0.841 | 0.826 | 0.698 | 0.621 | 0.773 | 0.682 | 0.785 | 0.606 | 0.689 | 0.574 | 0.3 | 0.915 | 0.849 | 0.759 | 0.899 | 0.82 | 0.905
A549 | 0.975 | 0.946 | 0.821 | 0.386 | 0.239 | 0.33 | 0.239 | 0.312 | 0.323 |  | 0.248 | 0.286 | 0.64 | 0.9 | 0.696 | 1.02 | 0.82 | 1.01
NCI-H1975 | 1.02 | 0.844 | 0.82 | 0.411 | 0.436 | 0.341 | 0.334 | 0.432 | 0.434 | 0.401 | 0.389 | 0.36 | 0.352 | 0.669 | 0.62 | 0.668 | 0.403 | 0.913
PC-3 [JPC-3] | 0.419 | 0.443 | 0.364 | 0.32 | 0.952 |  | 0.758 | 0.825 | 0.762 | 0.846 | 0.73 | 0.75 | 0.935 | 1.02 | 0.96 | 1.08 | 0.954 | 0.462
EPLC-272H | 1.13 | 1 | 0.392 | 0.482 | 0.501 | 0.337 | 0.36 | 0.385 | 0.309 | 0.326 | 0.357 | 0.299 | 0.854 | 0.819 | 1.02 | 1.03 | 0.768 | 0.987
